PubChem BioAssay AID330 (DTP/NCI, 2004)
“And” between values parts separate entries of the source, which are not always exact repeats. Equal values may be shown once. Toxic doses and inconclusive results are not listed. Rule for the calls: active = survival T/C of 150% or more; inactive = T/C below 125% in these data.

System: P388 leukemia ip, CD2F1 mice, survival T/C
Test: NCI In Vivo Anticancer Drug Screen. Data for tumor model P388 Leukemia (intraperitoneal) in CD2F1 (CDF1) mice
Settings: endpoint: median survival time, higher = longer survival
Procedure, shortened: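 Mice carrying the transplanted tumor received test compound or vehicle. Survival was recorded in each group, and the value is the treated-group measurement divided by that of the vehicle-treated control group.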

[1] = dose: 50.0 mg/kg/injection, schedule: Q01DX005 (ip), vehicle: saline with Tween-80
[2] = dose: 100.0 mg/kg/injection, schedule: Q01DX005 (ip), vehicle: saline with Tween-80
[3] = dose: 200.0 mg/kg/injection, schedule: Q01DX005 (ip), vehicle: saline with Tween-80
[4] = dose: 100.0 mg/kg/injection, schedule: Q01DX009 (ip), vehicle: saline
[5] = dose: 100.0 mg/kg/injection, schedule: Q04DX003 (ip), vehicle: saline
[6] = dose: 200.0 mg/kg/injection, schedule: Q01DX009 (ip), vehicle: saline
[7] = dose: 200.0 mg/kg/injection, schedule: Q04DX003 (ip), vehicle: saline
[8] = dose: 400.0 mg/kg/injection, schedule: Q04DX003 (ip), vehicle: saline
[9] = dose: 25.0 mg/kg/injection, schedule: Q01DX009 (ip), vehicle: Klucel (hydroxypropylcellulose) (HPC)
[10] = dose: 12.5 mg/kg/injection, schedule: Q01DX009 (ip), vehicle: saline
[11] = dose: 25.0 mg/kg/injection, schedule: Q01DX009 (ip), vehicle: saline
[12] = dose: 50.0 mg/kg/injection, schedule: Q01DX009 (ip), vehicle: saline
[13] = dose: 6.25 mg/kg/injection, schedule: Q01DX009 (ip), vehicle: Klucel (hydroxypropylcellulose) (HPC)
[14] = dose: 12.5 mg/kg/injection, schedule: Q01DX009 (ip), vehicle: Klucel (hydroxypropylcellulose) (HPC)
[15] = dose: 100.0 mg/kg/injection, schedule: Q04DX003 (ip), vehicle: Klucel (hydroxypropylcellulose) (HPC)

Measured: T/C

c1ccc(N/N=C2/CCN3CCCc4cccc2c43)cc1
inactive: dose: 12.5 mg/kg/injection, schedule: Q04DX003 (ip), vehicle: DMSO 100 % of control | dose: 25.0 mg/kg/injection, schedule: Q04DX003 (ip), vehicle: DMSO 101 % of control | dose: 50.0 mg/kg/injection, schedule: Q04DX003 (ip), vehicle: DMSO 110 % of control

CC1(C)OCC2OC3OC(C)(C)OC3C(OS(C)(=O)=O)C2O1 (configuration not stated)
inactive: [1] 98 % of control | [2] 105 % of control | [3] 99 % of control

CN(C)C(=Nc1ccccc1)OC1=C/C(=C2/C=C(OC(=Nc3ccccc3)N(C)C)N=C2OC(=Nc2ccccc2)N(C)C)C(OC(=Nc2ccccc2)N(C)C)=N1
inactive: dose: 100.0 mg/kg/injection, schedule: Q01DX001 (ip), vehicle: Klucel (hydroxypropylcellulose) (HPC) 106 % of control | dose: 200.0 mg/kg/injection, schedule: Q01DX001 (ip), vehicle: Klucel (hydroxypropylcellulose) (HPC) 106 % of control | dose: 400.0 mg/kg/injection, schedule: Q01DX001 (ip), vehicle: Klucel (hydroxypropylcellulose) (HPC) 104 % of control

CC(=O)NCSCC(N)C(=O)O (configuration not stated)
inactive: [4] 104 % of control | [5] 95 % of control | [6] 118 % of control | [7] 113 % of control | dose: 400.0 mg/kg/injection, schedule: Q01DX009 (ip), vehicle: saline 90 % of control | [8] 90 % of control

Cn1c(N)nc2c(nc(OCc3ccccc3)n2C2OC(CO)C(O)C2O)c1=O (configuration not stated)
inactive: dose: 60.0 mg/kg/injection, schedule: Q01DX005 (ip), vehicle: saline with Tween-80 100 % of control | dose: 120.0 mg/kg/injection, schedule: Q01DX005 (ip), vehicle: saline with Tween-80 94 % of control | dose: 240.0 mg/kg/injection, schedule: Q01DX005 (ip), vehicle: saline with Tween-80 103 % of control

CCOC(=O)C(SC(Cl)(S(=O)(=O)c1ccccc1)S(=O)(=O)c1ccccc1)C(=O)OCC
inactive: [9] 105 % of control and 109 % of control | dose: 50.0 mg/kg/injection, schedule: Q01DX009 (ip), vehicle: Klucel (hydroxypropylcellulose) (HPC) 116 % of control and 120 % of control and 121 % of control | dose: 100.0 mg/kg/injection, schedule: Q01DX009 (ip), vehicle: Klucel (hydroxypropylcellulose) (HPC) 115 % of control and 116 % of control and 124 % of control | dose: 200.0 mg/kg/injection, schedule: Q01DX009 (ip), vehicle: Klucel (hydroxypropylcellulose) (HPC) 110 % of control and 120 % of control and 121 % of control | dose: 400.0 mg/kg/injection, schedule: Q01DX009 (ip), vehicle: Klucel (hydroxypropylcellulose) (HPC) 109 % of control

O=C(CCN1CCCC1)c1ccccc1
inactive: [10] 98 % of control | [11] 100 % of control | [12] 100 % of control

CN(C)c1cc(-c2ccccc2)oc(=O)c1Cl
inactive: dose: 50.0 mg/kg/injection, schedule: Q01DX009 (ip), vehicle: saline with Tween-80 99 % of control | dose: 100.0 mg/kg/injection, schedule: Q01DX009 (ip), vehicle: saline with Tween-80 100 % of control

NC(=NCCCCCCN=C(N)[N+](=O)[O-])N[N+](=O)[O-]
inactive: [13] 113 % of control and 123 % of control | [14] 105 % of control and 106 % of control | [9] 99 % of control and 106 % of control

CN(C)C(C(N(C)C)=[N+](C)C)=[N+](C)C
inactive: [10] 108 % of control and 109 % of control and 89 % of control | [11] 110 % of control and 111 % of control | [12] 100 % of control and 103 % of control and 88 % of control

CCOC(=O)NC(NC(=O)OCC)c1ccc(OC)cc1
inactive: [5] 100 % of control | [7] 91 % of control | [8] 94 % of control

CC(=C\c1ccc(Cl)c(Cl)c1)/C(C)=N/NC(N)=Nc1ccccc1
inactive: dose: 25.0 mg/kg/injection, schedule: Q04DX002 (ip), vehicle: saline with Tween-80 105 % of control | dose: 50.0 mg/kg/injection, schedule: Q04DX002 (ip), vehicle: saline with Tween-80 103 % of control

CC1(C)CCCC2(C)C1CCC1(C)OC3=CC(=O)C(O)=CC3=CC12 (configuration not stated)
inactive: [13] 100 % of control | [14] 112 % of control | [9] 119 % of control

Nc1nc(SN=Nc2ccc(S(N)(=O)=O)cc2)c2[nH]cnc2n1
inactive: dose: 7.5 mg/kg/injection, schedule: Q01DX009 (ip), vehicle: saline 118 % of control | dose: 15.0 mg/kg/injection, schedule: Q01DX009 (ip), vehicle: saline 100 % of control

CCOC(=O)Cn1cnc2cc(Cl)c([N+](=O)[O-])cc2c1=O
inactive: [15] 100 % of control and 110 % of control | dose: 200.0 mg/kg/injection, schedule: Q04DX003 (ip), vehicle: Klucel (hydroxypropylcellulose) (HPC) 101 % of control and 121 % of control | dose: 400.0 mg/kg/injection, schedule: Q04DX003 (ip), vehicle: Klucel (hydroxypropylcellulose) (HPC) 100 % of control | dose: 600.0 mg/kg/injection, schedule: Q04DX003 (ip), vehicle: Klucel (hydroxypropylcellulose) (HPC) 107 % of control

CC(=O)n1c(N)nc2ccccc21
inactive: [12] 104 % of control | [4] 104 % of control | [6] 90 % of control

CCN1C(=O)CC([Se]c2ccccc2)C1=O (configuration not stated)
inactive: dose: 6.25 mg/kg/injection, schedule: Q04DX003 (ip), vehicle: Klucel (hydroxypropylcellulose) (HPC) 99 % of control and 103 % of control | dose: 12.5 mg/kg/injection, schedule: Q04DX003 (ip), vehicle: Klucel (hydroxypropylcellulose) (HPC) 99 % of control and 102 % of control | dose: 25.0 mg/kg/injection, schedule: Q04DX003 (ip), vehicle: Klucel (hydroxypropylcellulose) (HPC) 100 % of control and 105 % of control | dose: 50.0 mg/kg/injection, schedule: Q04DX003 (ip), vehicle: Klucel (hydroxypropylcellulose) (HPC) 103 % of control and 104 % of control | [15] 100 % of control and 104 % of control

NS(=O)(=O)c1ccc(Nc2c3ccc(Cl)cc3nc3ncccc23)cc1
inactive: [1] 108 % of control | [2] 101 % of control | [3] 94 % of control

Cc1c[nH]c(=O)[nH]c1=O
inactive: dose: 32.0 mg/kg/injection, schedule: Q01DX009 (ip), vehicle: Klucel (hydroxypropylcellulose) (HPC) 99 % of control and 107 % of control | dose: 32.0 mg/kg/injection, schedule: Q01DX009 (ip), vehicle: saline with Tween-80 116 % of control | dose: 64.0 mg/kg/injection, schedule: Q01DX009 (ip), vehicle: Klucel (hydroxypropylcellulose) (HPC) 99 % of control and 102 % of control | dose: 64.0 mg/kg/injection, schedule: Q01DX009 (ip), vehicle: saline with Tween-80 106 % of control | dose: 128.0 mg/kg/injection, schedule: Q01DX009 (ip), vehicle: Klucel (hydroxypropylcellulose) (HPC) 100 % of control and 107 % of control | dose: 128.0 mg/kg/injection, schedule: Q01DX009 (ip), vehicle: saline with Tween-80 111 % of control | dose: 170.0 mg/kg/injection, schedule: Q04DX003 (ip), vehicle: saline with Tween-80 100 % of control | dose: 170.0 mg/kg/injection, schedule: Q## X003 (ip), vehicle: saline with Tween-80 100 % of control | dose: 256.0 mg/kg/injection, schedule: Q01DX009 (ip), vehicle: Klucel (hydroxypropylcellulose) (HPC) 100 % of control and 112 % of control | dose: 260.0 mg/kg/injection, schedule: Q04DX003 (ip), vehicle: saline with Tween-80 94 % of control | dose: 260.0 mg/kg/injection, schedule: Q## X003 (ip), vehicle: saline with Tween-80 94 % of control | dose: 390.0 mg/kg/injection, schedule: Q04DX003 (ip), vehicle: saline with Tween-80 95 % of control and 98 % of control | dose: 390.0 mg/kg/injection, schedule: Q## X003 (ip), vehicle: saline with Tween-80 95 % of control and 98 % of control | dose: 512.0 mg/kg/injection, schedule: Q01DX009 (ip), vehicle: Klucel (hydroxypropylcellulose) (HPC) 106 % of control and 93 % of control | dose: 512.0 mg/kg/injection, schedule: Q01DX009 (ip), vehicle: saline with Tween-80 98 % of control | dose: 520.0 mg/kg/injection, schedule: Q04DX003 (ip), vehicle: saline with Tween-80 95 % of control and 98 % of control | dose: 520.0 mg/kg/injection, schedule: Q## X003 (ip), vehicle: saline with Tween-80 95 % of control and 98 % of control

CC(=O)SCC(C)CCl (configuration not stated)
inactive: dose: 100.0 mg/kg/injection, schedule: Q04DX003 (ip), vehicle: saline with Tween-80 100 % of control | dose: 200.0 mg/kg/injection, schedule: Q04DX003 (ip), vehicle: saline with Tween-80 109 % of control

N#CC(=N)C(C#N)=Nc1c(O)[nH]c2ccccc12
inactive: dose: 6.25 mg/kg/injection, schedule: Q01DX009 (ip), vehicle: DMSO 100 % of control | dose: 12.5 mg/kg/injection, schedule: Q01DX009 (ip), vehicle: DMSO 94 % of control | dose: 25.0 mg/kg/injection, schedule: Q01DX009 (ip), vehicle: DMSO 100 % of control | dose: 50.0 mg/kg/injection, schedule: Q01DX009 (ip), vehicle: DMSO 108 % of control
